Test results from US4732893A, “Amino-anthracenediones-platinum complexes useful as anticancer compounds” (priority 1984, dated 1988).

Columns and labels:
[1] = tested on: genito-urinary tumors, head and neck cancer, osteogenic sarcoma; details: human, in vivo; cited from earlier work
[2] = tested on: c-DDP resistant L-1210 leukemia; test: c-DDP resistant L-1210 leukemia, T/C, LTS, TOX; assay type: in vivo, mice
Description: (§1) T/C percentage represents the percentual ratio of the mean survival time of the treated animals in comparison with the mean survival time of the control animals according to the methods described in "Anthracycline antibiotics" H. S. E. R Rhadem Edit., Academic Press, 1982.
(§2) (1) T/C: Mean survival time of treated mice/mean survival time of control
(untreated) mice × 100. Mean survival time of treated mice is
referred to dying animals only. N.ev.: not evaluable as consequence of th
(2) LTS: Longterms survivors (>30 days), i.e. cured animals.
(§3) (3) TOX: Toxic deaths are referred to animals dead before control animals
(§4) or to animals showing macroscopic toxic symptoms without tumor.

L-1210 leukemia = test: first experiment: L-1210 leukemia in mice, T/C percentage and long term survival; assay type: in vivo; details: 21 × 10^-6 moles/kg (c-DDP 7.00 mg/kg)
Description: Pt(DMSO)Cl2 ].2HCl.H2 O (coded BBR 1651), water soluble, and cis-[1,4-bis-[2-(2-hydroxyethylamino)ethylamino]-5,8-dihydroxy-9,10-anthracenedione.PtCl2 ].2HCl.H2 O (coded BBR 1734) are tested in comparison with equimolecular dosages of 1,4-bis-[2-(2-hydroxyethylamino)ethylamino]-5,8-dihydroxy-9,10-anthracenedione (DHAQ.2HCl) and with c-DDP dosed at 7 mg/kg, against L-1210 leukemia in mice. Groups of 10 animals, treated with intraperitoneal injections of […] L-1210 cells, have been used at each dosage level, evaluating T/C percentage and long term survival, i.e. more than sixty days.
as §1
(§5) LTS represents number of long-term (over 60 days) surviving animals with no pathologic episodes (i.e. cured animals).
A percentage of T/C over 120 indicates antitumoral activity; a percentage of T/C under 85 indicates toxicity.

[3] = tested on: L-1210 leukemia sensitive to c-DDP; test: second experiment: L-1210 leukemia sensitive to c-DDP, T/C, LTS, TOX; assay type: in vivo, mice; details: for T/C (1) %: range in parenthesis
Description: as §1, §5, §2
(untreated) mice × 100.
Mean survival time of treated mice is referred to dying animals only.
(2) LTS: Longterm survivors (>60 days), i.e. cured animals. Mean survival
as §3, §4
The data reported in Table 2 are the means of two subsequent experiments.

[4] = 21 × 10^-6/kg (c-DDP 7.1 mg/kg)
[5] = 29.6 × 10^-6/kg (c-DDP 10.0 mg/kg)
[6] = 21 × 10^-6 moles/kg (c-DDP 7.1 mg/kg)
[7] = 29.2 × 10^-6 moles/kg (c-DDP 10.0 mg/kg)

For `N.N.[Cl][Pt][Cl]` [c-DDP, cis-diaminodichloroplatinum^II], the “clinical activity (in words)” value [1] is listed as “activity is well demonstrated”, the “serious side effects (in words)” value [1] is listed as “gastrointestinal (nausea and vomiting often severe and prolungated), renal (dose-limiting renal insufficiency), hematological, neurological (ototoxicity) complications” and the “LTS (2) (>30 days)” value [2, 4] is listed as 0/10. For the same molecule, the “T/C (1) %” value [2, 4] was 100%, the “LTS (2) (>30 days)” value [2, 5] was 0/10 and the “T/C (1) %” value [2, 5] was 100%. For the same molecule, the “activity (in words)” value ([2]; animals injected with cis-platin resistant leukemia cells) was “uneffective”, the “% T/C” value (L-1210 leukemia) was 200% and the “Survival after 60 days” value (L-1210 leukemia; survivors/animals) was 0/10. The “LTS (2) (>60 days)” value [3, 6] was 0/20, the “T/C (1) %” value [3, 6] was 193 (187-200) % and the “T/C (1) %” value ([3]; 21 × 10^-6 moles/kg (c-DDP 7.1 mg/kg), listed as cis-platin) was 193%. The “LTS (2) (>60 days)” value [3, 7] was 1/20, the “T/C (1) %” value [3, 7] was 93 (87-100) % and the T/C percentage ([3]; L-1210 leukemia (sensitive to Pt), c-DDP 7 mg/kg, BBR 1734 1.55 mg/kg, BBR 1735 8 mg/kg) was ~200.
